pIC50: −log10 of the molar value.
Biological target: Muscarinic acetylcholine receptor
Experiment: Displacement of [3H]N-methylscopolamine from rat brain homogenate
Assay type: tissue-based
Settings: not given

`O=C1CCC(c2ccccc2)(C2CCN(Cc3cccc(F)c3)CC2)C(=O)N1` (configuration not stated) and `O=C1CCC(c2ccccc2)(C2CCN(Cc3cccc(I)c3)CC2)C(=O)N1` (configuration not stated) are within 1.5-fold of each other in IC50: 21 nM for the first, 22 nM for the second.

`O=C1CCC(c2ccccc2)(C2CCN(Cc3ccc(Cl)cc3)CC2)C(=O)N1` (configuration not stated) and `O=C1CCC(c2ccccc2)(C2CCN(Cc3ccc(Br)cc3)CC2)C(=O)N1` (configuration not stated) are within 1.5-fold of each other in IC50: 27 nM for the first, 38 nM for the second.

First: O=C1CCC(c2ccccc2)(C2CCN(Cc3ccccc3F)CC2)C(=O)N1 (configuration not stated)
Second: O=C1CCC(c2ccccc2)(C2CCN(Cc3ccccc3Br)CC2)C(=O)N1 (configuration not stated)
The IC50 of the first is 16-fold lower: 32 nM for the first, 500 nM for the second.

`O=C1CCC(c2ccccc2)(C2CCN(Cc3cccc(Br)c3)CC2)C(=O)N1` (configuration not stated) and `O=C1CCC(c2ccccc2)(C2CCN(Cc3cccc(Cl)c3)CC2)C(=O)N1` (configuration not stated) are within 1.5-fold of each other in IC50: 24 nM for the first, 26 nM for the second.

Going from `O=C1CCC(c2ccccc2)(C2CCN(Cc3ccc(I)cc3)CC2)C(=O)N1` (configuration not stated) to `O=C1CCC(c2ccccc2)(C2CCN(Cc3ccc(F)cc3)CC2)C(=O)N1` (configuration not stated), the IC50 rises from 17 nM to 98 nM (5.8-fold).

`O=C1CCC(c2ccccc2)(C2CCN(Cc3ccccc3I)CC2)C(=O)N1` (configuration not stated) and `O=C1CCC(c2ccccc2)(C2CCN(Cc3ccccc3Cl)CC2)C(=O)N1` (configuration not stated) are within 1.5-fold of each other in IC50: 500 nM for the first, 460 nM for the second.

Work on `O=C1CCC(c2ccccc2)(C2CCN(Cc3ccccc3)CC2)C(=O)N1` (configuration not stated) [BENZETIMIDE] yielded an IC50 of 15 nM.

System: not listed separately
Experiment: Ability (10 ug/kg) to inhibit binding of [125I]iododexetimide to adrenergic receptor in mice
Settings: not given

With `COc1cc2nc(N3CCN(C(=O)c4ccco4)CC3)nc(N)c2cc1OC` [PRAZOSIN] the pIC50 was 4.89.

Biological target: Muscarinic acetylcholine receptor
Experiment: Ability (10 ug/kg) to inhibit binding of [125I]iododexetimide to muscarinic receptor in mice
Settings: not given

Going from `Cl.O=C1CCC(c2ccccc2)(C2CCN(Cc3ccccc3)CC2)C(=O)N1` (configuration not stated) [BENZETIMIDE HYDROCHLORIDE] to `O=C1CC[C@@](c2ccccc2)(C2CCN(Cc3ccccc3)CC2)C(=O)N1` [DEXETIMIDE], the IC50 falls from 8900 nM to 3.3 nM (2700-fold).

System: not listed separately
Experiment: Ability (10 ug/kg) to inhibit binding of [125I]iododexetimide to 5-hydroxytryptamine receptor in mice
Settings: Mus musculus

`O=C(c1ccc(F)cc1)C1CCN(CCn2c(=O)[nH]c3ccccc3c2=O)CC1` [KETANSERIN] gave a pIC50 of 3.89.

Source: ChEMBL document CHEMBL1124460, “Synthesis and biological evaluation of [125I]- and [123I]-4-iododexetimide, a potent muscarinic cholinergic receptor antagonist” (J Med Chem, 1989)
